# Measurements as given in US11969408B2, “Method for improving mitophagy in subjects” (Amazentis SA, priority 2017, dated 2024).
# How the values were obtained:
# Type in all cases: in vivo, human
# [1] = tested on: genes associated with autophagy and mitophagy, mitochondrial biogenesis and dynamics, and fatty acid oxidation in skeletal muscle biopsies; test: rtPCR analysis of gene expression levels in skeletal muscle biopsies
# Method: Muscle biopsies were collected before the meal from the vastus lateralis muscle of the right leg in order to perform ex vivo measurements. Muscle biopsies were collected on Day −1 and Day 28 at pre-dose under fasted state using the Bergström biopsy needle technique. The minimal amount of each muscle tissue sample was approximately 50 mg. One third of the tissue was used for gene expression (≈50 mg), and was further divided into two equal portions: one portion for RNA analysis (≈25 mg) and one portion for DNA analysis (≈25 mg), both in a Safe-lock Tubes 2.0 ml, Eppendorf (part no. 0030.120.094). Muscle tissue was snap frozen using liquid nitrogen immediately after collection and further, long term storage will be in a −80° C. freezer. The mRNA was analysed by microarray. Quantification of mtDNA over nuclear DNA provided another measure of mitochondrial abundance. The shipment was done in dry ice by specialized carrier. Temperatures were monitored using data logger during all transport. The method used has been validated according to good clinical laboratory practices (GCLP) and ICH guideline Q2(R1) (Validation of analytical procedures) by the corresponding service provider. Every sample was analysed in at least technical duplicates for housekeeping and target genes. A Ct value (threshold cycle), corresponding to the cycle at which the fluorescence signal reaches the amplification phase, was determined for every technical replicate and gene. The method of the 2^−ΔΔCt (Livak, K., J., and Schmittgen, T. D., Methods, 2001) was then applied to determine the relative expression of each target gene. rtPCR analysis was carried out on skeletal muscle biopsies of human subjects administered urolithin A or placebo daily for 28 days to determine the expression levels of specific genes associated with autophagy and mitophagy (LAMP2, ULK1, PIK3C3, MAP1LC3B, SQSTM1, PARK2), mitochondrial biogenesis and dynamics (SIRT1, PPARGC1A, PPARA, ESRRA, MFN1, MFN2, OPA1), and fatty acid oxidation (CPT1B, FABP3). FIG. 6 provides bar graphs showing the fold-change in gene expression levels from day −1 to day 28 for each gene for patients administered 250 mg/day or 1000 mg/day urolithin A, over placebo. The bar graphs represent gene expression data, expressed as a percentage of change over placebo, i.e. a value of 0% means that there is no difference between the dose and the placebo group while a value of 100% means that there is an increase in 100% over placebo value.
# [2] = tested on: muscle and mitochondrial gene sets in vastus lateralis; test: Microarray analysis / Gene Set Enrichment Analysis of skeletal muscle biopsies
# Method: Muscle biopsies were collected on Day −1 and Day 28 at pre-dose under fasted state using the Bergström biopsy needle technique. The minimal amount of each muscle tissue sample was approximately 50 mg. One third of the tissue was used for gene expression (≈50 mg), and was further divided into two equal portions: one portion for RNA analysis (≈25 mg) and one portion for DNA analysis (≈25 mg), both in a Safe-lock Tubes 2.0 ml, Eppendorf (part no. 0030.120.094). Muscle tissue was snap frozen using liquid nitrogen immediately after collection and further, long term storage will be in a −80° C. freezer. The mRNA was analysed by microarray. Quantification of mtDNA over nuclear DNA provided another measure of mitochondrial abundance. The shipment was done in dry ice by specialized carrier. Temperatures were monitored using data logger during all transport. Gene expression on available remaining muscle tissues samples was performed by microarrays. […] Microarray analysis was carried out on skeletal muscle biopsies of human subjects administered urolithin A or placebo daily for 28 days. Approximately 30,000 gene transcripts were quantified by microarray in muscle biopsies and compared (day 28 vs. day −1). Gene Set Enrichment Analysis was conducted on 6166 gene sets. […]
# [3] = Steady state plasma levels of total Urolithin A over 4-week dosing; settings: Day 31 and Day 32
# Method: A double-blind, randomized, placebo controlled clinical trial was conducted in healthy elderly to establish the steady state levels of Urolithin A in plasma. Elderly subjects (61-82 years) (n=9), participated in each group of dosing. The subjects met all the inclusion and exclusion criteria of the study and signed informed consent. The subjects were overnight fasted and the plasma was collected in the morning before breakfast to assess steady state levels. Subjects were given a dose of Urolithin or placebo each morning for the 28 day trial. The urolithin A was given as softgel capsules containing 250 mg of Urolithin A in each capsule. Plasma samples were collected for assessment of Urolithin A steady state concentrations in the 4-week Urolithin A study at the following time points (Day 0, Day 7, Day 14, Day 28, Day 29, Day 31, and Day 32). […] On day 28 the subjects were admitted to a Phase 1 clinical trial unit and the kinetics of Urolithin A absorption, and elimination following multiple 4-week dosing were followed until 96 hours following the last dosing on Day 28. Plasma was collected at the following time-points post last dosing with Urolithin A on Day 28: pre-dose, 1 hr, 2 hr, 4 hr, 6 hr, 8 hr, 12 hr, 24 hr, 72 hr and 96 hr. […] The exact time of sample collection was recorded on the eCRF (electronic case report from). […]
# [4] = 1000 mg/day for 28 days, over placebo, P<0.05 Dunnett post-hoc
smiles,measurement,setting,value
O=c1oc2cc(O)ccc2c2ccc(O)cc12 [Urolithin A],Ulk1 gene expression change,"[1]; 1000 mg vs placebo, ANOVA p=0.0524, Dunnett p=0.0180",close to significant
same,Ppargc1a gene expression change,"[1]; 1000 mg vs placebo, ANOVA p=0.1026, Dunnett p=0.0673",close to significant
same,Cpt1b gene expression change,"[1]; 1000 mg vs placebo, ANOVA p=0.1362, Dunnett p=0.0805",close to significant
same,Park2 gene expression change,"[1]; 1000 mg vs placebo, ANOVA p=0.2504, Dunnett p=0.1500",close to significant
same,"expression of genes associated with autophagy, mitochondrial function, and/or fatty acid oxidation","[1]; 1000 mg/day for 28 days, day 28 vs day −1, over placebo",upregulation
same,FABP3 gene expression (fatty acid oxidation-related),[1]; [4],significant upregulation
same,LAMP2 gene expression (autophagy/mitophagy-related),[1]; [4],significant upregulation
same,enrichment in GO_MITOCHONDRION genes expression,"[2]; 1000 mg urolithin A group vs placebo group, 28 day treatment",significant
same,mitochondrial and muscle gene sets expression (normalized enrichment score),"[2]; 1000 mg/day for 28 days, day 28 vs day −1, compared with placebo, FDR<0.25",significantly upregulated
same,steady state levels after the end of the 4-week UA administration,[3],gradually declined
